For 63 compounds, melting point results are on record in a melting point compilation (Tetko et al.; mined from patent text by program, amines drawn as free bases though some values may be those of a salt).

What is called melting point is the temperature, or range, at which the solid turns liquid.

`CS(=O)(=O)c1ccc(Cn2ccc3c4c(N)nc(N)nc4ccc32)cc1`: the melting point came to 248 °C. The value for `Cc1cc(Nc2c(C#N)cnc3cc(Br)ccc23)ccc1OCc1ccccn1` was 238 to 241 °C.

On to `COc1cc(NC(C)=O)ccc1N1C(=O)C(C)(c2ccccc2Cl)c2cc(Cl)ccc21` (stereo not drawn), for which the melting point stood at 83 °C. As for `CN1CCOc2cc(S(=O)(=O)n3c(COC(C)(C)C(=O)O)cc4nc(Cl)ccc43)ccc21`, the figure is 229 °C; as for `O=C(NC(=O)c1c(F)cccc1F)Nc1cc(Cl)c(OC(F)(F)C(F)Cl)cc1Cl` (stereo not drawn), 177 to 179 °C; as for `COc1c(C)cnc(CSc2nc3cc(C(F)(F)F)ccc3[nH]2)c1C`, 163 °C.

Consider `O=S(=O)(c1ccc(Br)s1)N(CCO)CCO`, for which the melting point is 70 °C.

On to `O=C(O)Cc1c(C(=O)O)c2cc(Oc3ccc(C(F)(F)F)cc3)ccc2n1-c1ccccc1`, for which the melting point is 255 to 257 °C.

`CS(=O)(=O)Cc1cc(C(O)CNCCCCCCNCC(O)c2ccc(OCc3ccccc3)c(CS(C)(=O)=O)c2)ccc1OCc1ccccc1` (stereo not drawn) displayed a melting point of 146 to 148 °C. As for `O=C(OCCCCCCCCCCCCCCCCOc1ccc(-c2cccc(F)c2F)cc1)C(CCCCCCO)CCCCCCO`, the figure is 45.2 to 48.8 °C; as for `CCOCc1nc2c(N)nc3cc(OCCCc4cccc(N)c4)ccc3c2n1CC(C)(C)O`, 164 to 166 °C; as for `O=C(c1ccc(I)cc1)c1ccc(-c2ccc(Cl)cc2)cc1`, 218 °C. As for `OCCn1cc(-c2ccc3ncn(Cc4ccc5ncccc5c4)c3n2)cn1`, the figure is 160 to 163 °C; as for `CN1CCC(NNC(=O)c2ccccc2)CC1`, 149 to 150 °C; as for `OC(CNC1=NCCCN1)c1ccccc1` (stereo not drawn), 188 °C. As for `COC(=O)C1=Cc2cccc(C3CCN(S(=O)(=O)c4ccc(C)cc4)CC3)c2CCC1`, the figure is 169 to 173 °C; as for `COc1cccc2c(=O)c(C(=O)C3CCCCC3)c[nH]c12`, 168 to 170 °C. `Cc1ccccc1OCCN1CCC(CNc2nc3ccccc3s2)CC1` showed a melting point of 126 °C. In turn, `COC(=O)c1cc(OC)cc(-c2ccc(N(C)C)cc2)n1` had a melting point of 157 to 158 °C.

On to `C=CCc1ccccc1OCC(O)CNCCc1ccc(NC2CCN(S(=O)(=O)c3ccc(NC(=O)NCCCCCC)cc3)CC2)cc1` (stereo not drawn), for which the melting point is 68 to 70 °C. The value for `Cc1c(C)c2c(c(C)c1NC(=O)CC(C)(C)C)C(c1ccc(C(C)O)cc1)CO2` (stereo not drawn) was 144 to 145 °C. `O=C(c1cccc(C(F)(F)F)c1)c1cc2cccc(Br)c2o1` had a melting point of 75 to 78 °C. As for `CC(=O)N(Cc1ccccc1)CC(CCN1CCC(O)(c2ccccc2)CC1)c1ccc(Cl)c(Cl)c1` (stereo not drawn), the figure is 57 to 62 °C. The value for `O=S(=O)(NCCCCOc1ccc(-n2ccnc2)cc1)c1cccc2nonc12` was 125 to 126 °C; that for `COC(=O)c1ccccc1NC(=O)NCC1(c2ccccc2)CCCCC1` was 91 to 94 °C; that for `COc1ccccc1-n1c(=O)[nH]c2c(C(N)=O)nc(-c3ccc4[nH]c(SC)nc4c3)nc21` was 244 to 245 °C. On to `CN1CC(=O)Nc2ccc(Cl)cc2C1=O`, for which the melting point is more than 250 °C.

For `CC1CC2C3CCC4=CC(=O)C=CC4(C)C3(F)C(O)CC2(C)C1(O)C(=O)COC(=O)OCc1ccccc1[N+](=O)[O-]` (stereo not drawn), the melting point lay in the range of 203 to 204 °C.

As to `CN1CCC(Cn2nc(-c3c(-c4ccccc4)nn4ccccc34)ccc2=O)CC1`, the melting point was 180 to 181 °C.

The compound `CC(C)n1nc(-c2c(-c3ccccc3)nc(N)nc2N2CCCCC2)ccc1=O` showed a melting point of 221 to 223 °C. The value for `O=C1COc2cc(NC(=O)C(=O)N3CCC(OCc4ccccc4)CC3)ccc2N1` was 232 to 236 °C; that for `Clc1ccc2[nH]c3c(c2c1)CN(CCCCc1ccncc1)CC3` was 227 to 228 °C. As for `CCOC(=O)c1ncc2[nH]c3ccccc3c2c1C`, the figure is 235 to 239 °C. As for `O=S(=O)(c1ccccc1)c1ccc2c(c1)[C@@H](O)[C@H](Br)CCO2` (relative stereo), the figure is 190 to 193 °C; as for `O=C(CCN1CCN(c2ccccc2)CC1)NCC(=O)c1ccccc1`, 126 °C.

Consider `CC(C)C(=C=O)NC(=O)Nc1ccc([N+](=O)[O-])cc1O`, for which the melting point lay in the range of 168 to 169 °C. For the compound `CC(C)(C)C(=O)Oc1ccccc1C(=O)c1ccccc1OC(=O)C(C)(C)C`, the melting point is 106 to 108 °C. Regarding `Cn1nc(N)c2sc3ncccc3c21`, the melting point lay within 194 to 196 °C. As for `CC(C)(C)CC(C)(C)c1cc(CO)c(O)c(CO)c1`, the figure is 76 to 77 °C; as for `Nc1nnc(-c2cccc(OCc3c(Cl)cccc3Cl)c2)c(N)n1`, 190 to 192 °C; as for `O=C(OCC1CC1)c1ncn2c1[C@@H]1CCCN1C(=O)c1c(I)cccc1-2`, 164 to 165 °C. The value for `CNC(=S)NCCCCCC1CCSS1` (stereo not drawn) was 64 to 65 °C. In the case of `O=C(O)[C@@H]1CCC(=O)N1C(=O)c1ccccc1`, the melting point lay in the range of 140 to 141 °C.

The compound `CCOC(=O)C(=CN(C)C)C(=O)c1cc(F)c(N2CCC(NC(C)=O)C2)nc1Nc1ccc(F)cc1F` (stereo not drawn) returned a melting point of 184 to 186 °C. `COc1cc2c(cc1O)CC1CN(C)Cc3c(O)c(OC)cc-2c31` (stereo not drawn) came in with a melting point of 300 °C. On to `O=C(OCC1CCC1)c1ncn2c1[C@@H]1CCCN1C(=O)c1c(Cl)cccc1-2`, for which the melting point is 204 to 205 °C.

Take `CCOC(=O)C1=C(N)NC(N)=C(C(=O)OCC)C1c1cc([N+](=O)[O-])ccc1Cl`: the melting point came out at 130 °C. Regarding `CC(=O)Nc1ccc(NC(=O)NC23CC4CC(CC(C4)C2)C3)cn1`, the melting point lay within 252 to 254 °C. The value for `N#CC=Cc1ccc(C(=O)Cl)cc1` was 154 °C. As for `COc1cc(N)ccc1-c1ccccc1`, the figure is 56 °C; as for `CCCCn1cc(S(C)=O)c(=O)c2ccccc21` (stereo not drawn), 103 to 105 °C; as for `O=C(C=Cc1ccccc1)Nc1ccc2ccc(Cl)nc2n1`, 263 °C. The value for `CCOC(=O)C1=C(c2ccccc2)Nc2n[nH]cc2C1c1ccccc1Cl` (stereo not drawn) was 214 °C.

`Nc1nc(N)c(CCNc2ccc(C(=O)N[C@@H](CCC(=O)O)C(=O)O)cc2)c(=O)[nH]1` displayed a melting point of 180 to 185 °C. `CCOC(C)=C1SC(=S)N(c2ccc(Cl)cc2)C1=O` showed a melting point of 168 to 171 °C. The value for `Cc1cc(C)c(C(C(N)=O)C(N)=O)c(C)c1` was 177 to 179 °C; that for `CCOC(=O)C(=NOC)C1=CSc2ccccc2O1` was 78 to 80 °C; that for `COc1ccc2c(c1)C=C(C(O)C(F)(F)F)CC2` (stereo not drawn) was 66 to 68 °C. `c1ccc(N2c3ccccc3CC2C2=NCCN2)cc1` (stereo not drawn): the melting point lay within 141 to 144 °C. The value for `CSc1ncnc2c(C3OC(CO)C(O)C3O)csc12` (stereo not drawn) was 226 to 228 °C; that for `N#Cc1ccc2[nH]c3c(c2c1)CC(NC(=O)OCc1ccccc1)CC3` (stereo not drawn) was 141 to 143 °C; that for `Nc1ncc(CN2CCN(c3cccc(Cl)c3)CC2)c(N)n1` was 222 to 226 °C. `CC1=CC(NC(=O)OC(C)(C)C)C(C(=O)O)CC1` (stereo not drawn) came in with a melting point of 132 to 136 °C.
